Legend:
Type in all cases: ADME, organism-based
Details in all cases: in vivo
[1] = Oral bioavailability in Wistar rat at 20 mg/kg by LC-MS/MS analysis
[2] = Tmax in Wistar rat at 20 mg/kg, […] by LC-MS/MS analysis
[3] = Tmax in Wistar rat at 200 mg/kg, […] by LC-MS/MS analysis
[4] = Oral bioavailability in human

With C=C1CC[C@@H]2[C@](C)(CO)[C@H](O)CC[C@@]2(C)[C@@H]1C/C=C1/C(=O)OC[C@H]1O [ANDROGRAPHOLIDE] the bioavailability [1] was 61.2%, the Tmax [2] was 62.4 min and the Tmax [3] was 39.6 min. For the same molecule, the bioavailability [4] was 2.67%.

Source: ChEMBL document CHEMBL6078639, “Andrographolide: A promising therapeutic agent against organ fibrosis” (Eur J Med Chem, 2024)
